These results are taken from patent publication US20120190751A1, “COMPOUNDS FOR TREATMENTS OF INFLAMMATION” (ANA-MAR AB, priority 2009, published 2012).

The target in one test is 5-HT1D receptor (Homo sapiens, UniProt P28221). Description: Radio-ligand binding assay 5-HT1D. To be noted: 10 μM compound; [3H]-5-CT 2 nM; human cortex. The procedure:
(§1) Determination of binding affinities for various 5-HT receptors was performed by radio-ligand binding assays. Briefly, tissue or cells expressing the receptor of interest were suspended in incubation buffer and radio-ligands and 10 μM N-(2-chloro-3,4-dimethoxybenzylidene-amino)guanidine were added. After incubation, separation of bound and free radio-ligand was done by multiple washings with buffer.
(§2) The results were presented as the percent inhibition of specific binding. The IC50 values were determined by a non-linear least square regression analysis using MathIQ™ (ID Business Solution Ltd., UK). The inhibition constants (Ki) were calculated using the equation of Cheng and Prusoff (Cheng Y, Prusoff W H, Biochem. Pharmacol. 22:3099-3108, 1973) using the observed IC50 of the tested compound, the concentration of radioligand employed in the assay and the historical values for the KD of the ligand.

The target in a further test is 5-HT2A receptor (Homo sapiens, UniProt P28223). Description: Radio-ligand binding assay 5-HT2A. To be noted: 10 μM compound; [3H]-Ketanserin 2 nM; human cortex. The procedure: as §1, §2
A further test addresses T1, 5-HT2B receptor (Rattus norvegicus, UniProt P30994).
T1 construct: induces contraction in the rat stomach fundus from Wistar rats; from tissue; host or cells: rat (Wistar) stomach fundus
Description: 5-HT2B tissue assay (functionality, rat stomach fundus contraction). The format is cell-based. To be noted: FIG. 2, read-out: IC50, antagonistic effect on 5-HT2B. The procedure: (Cohen M L, Fludzinski L A. Contractile serotonergic receptor in rat stomach fundus. J. Pharmacol. Exp. Ther. (1987 October); 243(1):264-269.)
FIG. 2. Antagonistic effect of N-(2-chloro-3,4-dimethoxybenzylideneamino)guanidine on 5-HT2B and 5-HT2C receptors. The functionality of the compound was evaluated with the 5-HT2B tissue assay and the 5-HT2C GTPγS binding assay methods.
N-(2-chloro-3,4-dimethoxybenzylideneamino)guanidine was further tested for functionality against 5-HT2B (Cohen et al. (1987), J. Pharmacol. Exp. Ther. 243:264-269), 5-HT2C (Adlersber M, et al. (2000), J. Neurosci. Res. 61(6):674-685; Cussac D. et al. (2002), Mol. Pharmacol. 62(3):578-589) and 5-HT4 (Reeves et al. (1991), Br. J. Pharmacol. 103:1067-1072).

In the next test the test system is rat synoviocytes. Description: IL-6 release from LPS-stimulated rat synoviocytes. The format is cell-based. To be noted: 72 hours. How it is done: Pannus from the inflamed knee of rats with antigen-induced arthritis (AIA) (see description of this model below; Andersson, S. E et al., (1998), J. Rheumatology 25: 1772-1777) was isolated three to five days after challenge, stored in PBS supplemented with 100 U/ml Penicillin-Streptomycin (PEST, Invitrogen Corporation) and 2.5 μg/ml Fungizone (Amphotericin B, Invitrogen) until it was further processed within a couple of hours. The PBS was discarded and the tissue cut in small pieces followed by digestion in a collagenase solution (400 U/ml; type 1 CLS-1, Worthington) for 3 hours at 37° C., 5% CO2. The suspension was filtered through a nylon mesh (70 μm), washed with tissue culture medium (RPMI-1640 with L-glutamine, Invitrogen, supplemented with 10% fetal bovine serum (FBS) and 100 U/ml PEST and 2.5 μg/ml Fungizone) and centrifuged (257 g). The cells were resuspended in tissue culture medium and seeded in cell culture flasks (T25, TPP). After overnight culture, nonadherent cells were removed by exchanging the medium, the cells were incubated at 37° C., 5% CO2, the medium was exchanged every third day until confluence was reached (7-10 days). The culture consisted of a mixed cell population with the principal constituents being fibroblasts and macrophages (Andersson, S. E. et al. (2000), Eur. J. Pharm. Sci 9: 333-343).
The cells were counted and reseeded at a density of 10000 cells/0.2 ml in 96-well cell culture plates (Nunc). After overnight culture the cells were stimulated with 50 ng/ml Lipopolysaccharide (LPS, E. coli 055:B5, Sigma) with simultaneous addition of 0.1, 1 and 10 μM N-(2-chloro-3,4-dimethoxybenzylideneamino)guanidine and 1 μM of 5-HT2 receptor agonists (triplicates). The cells were incubated for 72 hours after which the supernatants were collected and analyzed for IL-6 (OptEIA™ Set Rat IL-6). The effect of treatment on cell viability was determined using the cell proliferation reagent, WST-1 (Roche Diagnostics).
Inflamed knee joints of rats with antigen-induced arthritis (AIA) were dissected four days after intra-articular challenge with antigen. Freshly isolated pannus tissue was collected in phosphate-buffered saline (PBS) supplemented with 100 U/ml penicillin, streptomycin (PEST, Invitrogen) and 2.5 μg/ml Fungizone (Amphotericin B, Invitrogen), finely minced with a pair of scissors and digested with 400 U/ml collagenase (type 1 CLS-1, Worthington) in RPMI 1640 (Gibco) supplemented with PEST and fungizone (2.5 μg/ml) for 3 hours. The cell suspension was filtered through a 70 μm nylon mesh and the cells collected by centrifugation at 257×g, 10 min. The cells were resuspended in RPMI 1640 supplemented with 10% FBS (Gibco), PEST and fungizone (culture medium), plated in T25 flasks (TPP Cat#90026). After overnight incubation nonadherent cells were removed and the culture medium was replaced every third day until the cells approached confluency (normally achieved within 7-10 days). At near-confluency, the cells were washed with PBS and harvested by trypsination. After washing in PBS the cells were resuspended in culture medium and seeded at 10.000 cells/well/0.2 ml in 96 well plates (Nunc cat#167008). After overnight culture the culture medium was replaced with fresh medium and 50 ng/ml LPS (Sigma, L6529) together with different concentrations of 5-HT, 5-HT2 receptor agonists and/or antagonists and N-(2-chloro-3,4-dimethoxybenzylideneamino)guanidine. The cells were incubated for 72 hours after which the supernatants were collected and analyzed for IL-6 (BD OptEIA™ Set). The effect of treatment on cell viability was determined using the cell proliferation reagent, WST-1 (Roche Diagnostics). In another experiment rat synoviocytes were incubated with 50 ng/ml LPS for 2 or 22 hours were after the levels of 5-HT was analysed in the cell culture medium using a Serotonin ELISA kit (IBL International, RE59121). We also incubated rat synoviocytes with 5-HT (10 μM) and measured the gene expression of 5-HT2B and 5-HT2C.

“Also recorded” adds a separate entry of the source.

T1 sequence (P30994 whole entry): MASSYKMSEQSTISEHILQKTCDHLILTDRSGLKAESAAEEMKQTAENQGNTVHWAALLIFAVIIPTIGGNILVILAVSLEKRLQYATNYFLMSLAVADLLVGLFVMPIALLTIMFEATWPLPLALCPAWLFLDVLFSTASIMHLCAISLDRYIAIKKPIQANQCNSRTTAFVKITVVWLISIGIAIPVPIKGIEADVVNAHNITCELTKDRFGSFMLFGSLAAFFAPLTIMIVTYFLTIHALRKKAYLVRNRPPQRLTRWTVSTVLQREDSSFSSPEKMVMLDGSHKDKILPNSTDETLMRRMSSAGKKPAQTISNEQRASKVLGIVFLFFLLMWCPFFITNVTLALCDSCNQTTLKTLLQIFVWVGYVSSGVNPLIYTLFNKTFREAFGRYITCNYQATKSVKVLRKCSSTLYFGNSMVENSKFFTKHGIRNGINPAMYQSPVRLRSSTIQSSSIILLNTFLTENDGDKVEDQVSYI
Chain of 5-HT1D receptor (P28221 whole entry): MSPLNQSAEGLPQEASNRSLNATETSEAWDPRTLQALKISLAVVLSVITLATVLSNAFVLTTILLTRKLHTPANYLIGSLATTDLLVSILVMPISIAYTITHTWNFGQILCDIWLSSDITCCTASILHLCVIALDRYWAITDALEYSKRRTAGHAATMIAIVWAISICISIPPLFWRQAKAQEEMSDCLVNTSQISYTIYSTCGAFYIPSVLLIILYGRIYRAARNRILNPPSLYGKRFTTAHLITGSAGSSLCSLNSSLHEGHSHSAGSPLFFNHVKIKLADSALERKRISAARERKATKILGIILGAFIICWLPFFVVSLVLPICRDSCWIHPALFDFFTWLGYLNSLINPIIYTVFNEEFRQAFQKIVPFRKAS
Chain of 5-HT2A receptor (P28223 whole entry): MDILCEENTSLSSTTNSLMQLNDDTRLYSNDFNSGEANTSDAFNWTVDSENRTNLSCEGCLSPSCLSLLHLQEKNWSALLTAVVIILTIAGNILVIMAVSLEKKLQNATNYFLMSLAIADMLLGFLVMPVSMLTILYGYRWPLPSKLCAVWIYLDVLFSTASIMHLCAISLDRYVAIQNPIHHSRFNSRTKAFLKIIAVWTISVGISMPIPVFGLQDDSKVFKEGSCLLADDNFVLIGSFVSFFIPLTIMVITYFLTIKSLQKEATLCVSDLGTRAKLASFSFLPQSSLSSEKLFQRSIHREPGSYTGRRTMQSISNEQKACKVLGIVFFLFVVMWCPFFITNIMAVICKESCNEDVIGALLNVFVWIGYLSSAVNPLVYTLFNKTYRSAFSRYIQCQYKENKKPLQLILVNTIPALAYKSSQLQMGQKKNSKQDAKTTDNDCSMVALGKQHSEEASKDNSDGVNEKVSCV

For `COc1ccc(C=NNC(=N)N)c(Cl)c1OC` [N-(2-chloro-3,4-dimethoxybenzylideneamino)guanidine], the inhibition at 10 µM on 5-HT1D receptor was -5.7%; at 5-HT2A receptor, 45%. Besides, the IC50 on 5-HT2B receptor is 61.7 µM. In addition, in the test with rat synoviocytes (1 μM 5-HT + LPS 50 ng/ml, test substance 0.1, 1 or 10 μM, FIG. 7A), the “IL-6 release induced by 5-HT and LPS” value was “reduces the IL-6 response”. Moreover, the “IL-6 production induced by BW 723C86 (5-HT2B agonist) and LPS” value with rat synoviocytes (1 μM BW 723C86 + LPS 50 ng/ml, compound 0.1, 1, 10 μM, FIG. 4, FIG. 7B) is on record as “in a dose-dependent way is counteracted; also recorded: reversed the effects”. Moreover, in the test on rat synoviocytes (1 μM CP 809101 + LPS 50 ng/ml, compound 0.1, 1, 10 μM, FIG. 4, FIG. 7B), the “IL-6 production induced by CP 809101 (5-HT2C agonist) and LPS” value was “is counteracted; also recorded: reversed the effects”.
